Test results reported in PMC7763917, “A Facile Semisynthesis and Evaluation of Garcinoic Acid and Its Analogs for the Inhibition of Human DNA Polymerase β” (Molecules, 2020).

target: T1, human DNA polymerase β (hpol β) (Homo sapiens, UniProt P06746); test: fluorescence-based polymerase inhibition assay; assay type: biochemical; settings: 1 nM hpol β, 50 nM DNA, 100 μM dTTP, 25 °C; compounds tested from 1 μM to 120 μM; mean of triplicate; read-out: IC50 in inhibiting hpol β
Protocol: A fluorescence-based assay, as described previously, was used to determine the IC50 values for garcinoic acid and its homologs for human DNA polymerase β. DNA substrates were prepared as we reported previously. Briefly, a reporter strand conjugated with 5-carboxytetramethylrhodamine (TAMRA) and an unlabeled primer were annealed to a Black Hole Quencher (BHQ)-labelled template strand in a solution containing 10 mM Tris (pH 8.0) and 50 mM NaCl. The oligonucleotides were annealed in a 1:1.5:1.5 ratio for reporter, primer and template strand, respectively. The oligonucleotides were mixed and incubated for 3 min at 95 °C before cooling to room temperature.
The polymerase reaction was performed with 1 nM hpol β, 50 nM DNA, 100 μM dTTP and 2 mM MgCl2 in 50 mM Tris (pH 8.0) buffer containing 40 mM NaCl, 2 mM DTT and 0.01% (w/v) Tween 20. The reaction mix containing enzyme and dTTP were incubated for 5 min with the compound or DMSO in a 96-well plate before adding DNA to initiate the reaction. Polymerase reactions were performed at room temperature (25 °C). The plate was read continuously for one hour with a Synergy H4 plate reader (BioTek, λex = 525 nm, λem = 598 nm) (Winooski, VT, USA) after initiation of the reaction. The percent inhibition was calculated by dividing the rate of product formation at each compound concentration by the rate of product formation in DMSO control. The data was fit to a four-parameter logistic model with variable slope in Prism (San Diego, CA, USA) to calculate the IC50 values. The reactions were performed in triplicate and the mean IC50 value is reported with 95% confidence intervals.

Row | SMILES | IC50
1 | COc1cc(C)c2c(c1)CC[C@@](C)(CC/C=C(\C)CC/C=C(\C)CC/C=C(\C)C(=O)O)O2 [Compound 16, 13-[(R)-6-methoxy-2,8-dimethylchroman-2-yl]-2,6,10-trimethyltrideca-2E,6E,10E-trienoic Acid] | 31 µM
2 | COC(=O)/C(C)=C/CC/C(C)=C/CC/C(C)=C/CC[C@]1(C)CCc2cc(OC)cc(C)c2O1 [Compound 15, Methyl 13-[(R)-6-methoxy-2,8-dimethylchroman-2-yl]-2,6,10-trimethyltrideca-2E,6E,10E-trienoate] | > 120 µM
3 | C/C(=C\CC/C(C)=C/CC[C@]1(C)CCc2cc(O)cc(C)c2O1)CC/C=C(\C)C(=O)O [Compound 1, 13-[(R)-6-Hydroxy-2,8-dimethylchroman-2-yl]-2,6,10-trimethyltrideca-2E,6E,10E-trienoic acid] | 11 µM
4 | C/C(=C\CC/C(C)=C/CC[C@]1(C)CCc2cc(O)cc(C)c2O1)CC/C=C/C(=O)O [Compound 11, 13-[(R)-6-Hydroxy-2,8-dimethylchroman-2-yl]-6,10-dimethyltrideca-2E,6E,10E-trienoic acid] | 23 µM

Continued, values first:

Row | IC50 | SMILES
5 | > 120 µM | COC(=O)/C=C/CC[C@]1(C)CCc2cc(O)cc(C)c2O1 [Compound 12b, Methyl 5-[(R)-6-hydroxy-2,8-dimethylchroman-2-yl]pent-2E-enoate]
6 | > 120 µM | COC(=O)/C(C)=C/CC/C(C)=C/CC[C@]1(C)CCc2cc(O)cc(C)c2O1 [Compound 13a, Methyl 9-[(R)-6-hydroxy-2,8-dimethylchroman-2-yl]-2,6-dimethylnona-2E,6E-dienoate]
7 | > 120 µM | COC(=O)/C=C/CC/C(C)=C/CC[C@]1(C)CCc2cc(O)cc(C)c2O1 [Compound 13b, Methyl 9-[(R)-6-hydroxy-2,8-dimethylchroman-2-yl]-6-methylnona-2E,6E-dienoate]
8 | > 120 µM | COC(=O)/C(C)=C/CC[C@]1(C)CCc2cc(O)cc(C)c2O1 [Compound 12a, Methyl 5-[(R)-6-hydroxy-2,8-dimethylchroman-2-yl]-2-methylpent-2E-enoate]
9 | > 120 µM | Cc1cc(O)cc2c1O[C@](C)(CC/C=C/C(=O)O)CC2 [Compound 9b, 5-[(R)-6-Hydroxy-2,8-dimethylchroman-2-yl]pent-2E-enoic acid]
10 | 49 µM | C/C(=C\CC[C@]1(C)CCc2cc(O)cc(C)c2O1)CC/C=C/C(=O)O [Compound 10b, 9-[(R)-6-Hydroxy-2,8-dimethylchroman-2-yl]-6-methylnona-2E,6E-dienoic acid]
11 | 52 µM | C/C(=C\CC[C@]1(C)CCc2cc(O)cc(C)c2O1)CC/C=C(\C)C(=O)O [Compound 10a, 9-[(R)-6-Hydroxy-2,8-dimethylchroman-2-yl]-2,6-dimethylnona-2E,6E-dienoic acid]
12 | > 120 µM | COC(=O)/C(C)=C/CC/C(C)=C/CC/C(C)=C/CC[C@]1(C)CCc2cc(O)cc(C)c2O1 [Compound 14a, Methyl 13-[(R)-6-hydroxy-2,8-dimethylchroman-2-yl]-2,6,10-trimethyltrideca-2E,6E,10E-trienoate]
13 | > 120 µM | COC(=O)/C=C/CC/C(C)=C/CC/C(C)=C/CC[C@]1(C)CCc2cc(O)cc(C)c2O1 [Compound 14b, Methyl 13-[(R)-6-hydroxy-2,8-dimethylchroman-2-yl]-6,10-dimethyltrideca-2E,6E,10E-trienoate]
14 | > 120 µM | C/C(=C\CC[C@]1(C)CCc2cc(O)cc(C)c2O1)C(=O)O [Compound 9a, 5-[(R)-6-Hydroxy-2,8-dimethylchroman-2-yl]-2-methylpent-2E-enoic acid]

target: T1, human DNA polymerase β (hpol β); test: not given; design: method as in PMID 16146411; settings: garcinoic acid analog with the dihydropyran ring opened; not in Table 2, no reference printed at the sentence; cited from earlier work

Row | SMILES | hpol β inhibition activity (in words)
15 | C/C(=C\CC/C(C)=C/CC[C@@](C)(O)CCc1cc(O)cc(C)c1O)CC/C=C(\C)C(=O)O [chrysochlamic acid] | lack of hpol β inhibition activity
